Results from paper PMC7719179, “Small molecule inhibition of Dynamin-dependent endocytosis targets multiple niche signals and impairs leukemia stem cells” (Nature Communications, 2020).
Values joined by “and” are separate entries in the source; they are usually repeats but may differ in a detail not shown here. Equal entries are not always repeated. Where two headings read alike, the source gives them in different places.

Legend:
Ba/F3-IL7R cells = assay: Survival of IL-7-dependent Ba/F3-IL7R cells; assay type: cell-based, murine; settings: for Survival (%) over DMSO control, reported as 100%: Ba/F3-IL7R cells, replicates
Method: Ba/F3 cells (kindly provided by a person from The Walter and Eliza Hall Institute of Medical Research) were infected with pMIG-R1/Il7r retroviral supernatants produced in 293T cells, and transduced cells were sorted with a BD Influx (BD Australia) and selected by culture in medium supplemented with 5 ng/mL rmIL-7 (#217-17, Pepro Tech, Rocky Hill NJ, USA) for 7 days. Ba/F3 cells stably expressing Il7r (Ba/F3-IL7R) were infected with TxTCPVIR-Stat5-CA retroviral supernatants produced in 293T. Cell sorting was performed with a BD Influx and transduced cells were treated with doxycycline for 48 h to induce the expression of the Stat5-CA-T2A-mCherry fusion protein.
Flow cytometry analyses were performed as previously described[10],[86] on single-cell suspensions stained using BD Pharmingen antibodies (BD Australia, North Ryde NSW, Australia) against mouse CD4 (RM4-5), CD8 (53-6.7), CD25 (PC61.5), CD44 (IM7), CD45.1 (A20), CD45.2 (104), Thy1.2 (53-2.1; #561616), TCRβ (H57-597), CD117 (ACK45), CD135 (A2F10.1), CD150 (TC15-12F12.2; #562373), B220 (RA3-6B2; #563708), CD3 (145-2C11; #563004), CD19 (ID3; #557655), Gr-1 (RB6-8C5; #563299 and #565033), CD11b (M1/70; #563015 and #560455), Ter119 (Ter119; #565523 and #557909), Sca-1 (D7; #558160) and an eBioscience antibody (eBioscience, Invitrogen) against mouse NOTCH1 (22E5). DN3 populations and IL-7R were stained using BioLegend antibodies (Australian Biosearch, Balcatta WA, Australia) against mouse CD28 (E18) and CD127 (A7R34), respectively. Apoptosis was measured using an antibody against AnnexinV (#556420, BD Australia) and the […] Sytox Blue (BD Australia) following the manufacturer’s protocol.

[1] = test system: Human CD34-positive (CD34+) hematopoietic stem and progenitors; assay: Relative viability of human CD34+ hematopoietic stem and progenitors, 48 h; assay type: cell-based; parameters: Relative % viable cells: dose or concentration left out as unconfirmed; settings: 48 h
Method: (§1) Supplementary Figure 7. Efficacy of Dynole 34-2 for human T-ALL. a, b, Relative viability (%) of patient-derived (a ) ETP- ALL1 and (b) T-ALL 2 xenografts treated with increasing concentration of Dynole 34-2 for 48 hours. Viability was normalized to vehicle-treated cells with experiments performed in duplicates. Human CD34-positive (CD34+) hematopoietic stem and progenitors from healthy donors (N=3) were used as controls. […]

[2] = as above; assay type: cell-based; parameters: Relative % viable cells: dose or concentration left out as unconfirmed
Method: as §1

[3] = test system: AML01-307 and AML18 patient-derived xenografts; assay: Survival (Kaplan-Meier) and leukemia growth delay in AML01-307 and AML18 xenograft recipients; assay type: in vivo, human; settings: PDX AML01-307
Method: Patient-derived xenograft models were established as previously described[97],[98]. All experiments were pre-approved by the Human Research Ethics Committee of the University of New South Wales (UNSW), the UNSW Animal Care and Ethics Committee, the Alfred Health Human Ethics Committee and the AMREP Animal Ethics Committee. For transplantation assays, 10^6 splenocytes harvested from successfully engrafted primary human ETP-ALL or T-ALL xenografts were injected into nonobese diabetic/severe combined immunodeficient (NOD.Cg-Prkdc^scid, also termed NOD/SCID) or NOD/SCID/Il2rg^tm1wjl/SzJ (NSG) mice[99]. Moreover, 1.5 × 10^6 cells splenocytes harvested from successfully engrafted patient-derived AML xenografts were injected into nonobese diabetic/severe immunodeficient (NOD.Cg-Rag1^tm1MomIl2rg^tm1wjl/SzJ, also termed NRG) mice expressing human IL-3, human GM-CSF and human SCF from the SGM3 triple transgene (NRGS)[100]. Engraftment into recipients was monitored by FACS analysis of peripheral blood as previously described. […] Both males and females were used. […] Kaplan–Meier survival and statistical analyses were performed using GraphPad Prism. 6.0 software (GraphPad Software, Inc.). […]

Compound: CCCCCCCCNC(=O)C(C#N)=Cc1cn(CCCN(C)C)c2ccccc12 [Dynole 34-2, 2-Cyano-N-octyl-3-(1-(3-dimethylaminopropyl)-1H-indol-3-yl)-acrylamide]
- Survival (%) over DMSO control, reported as 100% (Ba/F3-IL7R cells; +IL-7, Dynole 34-2 0.2 (head prints mM)): 98.98% and 96.19% and 98.31% and 99.95% and 64.95% and 22.36% and 89.89% and 75.78% and 97.73% and 100.16%
- Survival (%) over DMSO control, reported as 100% (Ba/F3-IL7R cells; +IL-7, Dynole 34-2 1.0 (head prints mM)): 96.00% and 88.79% and 100.24% and 102.05% and 16.85% and 13.04% and 78.86% and 82.29% and 101.66% and 91.15%
- Survival (%) over DMSO control, reported as 100% (Ba/F3-IL7R cells; +IL-7, Dynole 34-2 5.0 (head prints mM)): 81.60% and 25.70% and 92.65% and 90.92% and 25.47% and 16.90% and 48.81% and 60.17% and 57.90% and 33.60%
- Survival (%) over DMSO control, reported as 100% (Ba/F3-IL7R cells; +IL-7, Dynole 34-2 10.0 (head prints mM)): 1.62% and 1.82% and 0.05% and 0.27% and 26.62% and 22.03% and 44.15% and 40.27% and 4.53% and 9.16%
- Survival (%) over DMSO control, reported as 100% (Ba/F3-IL7R cells; +IL-7, Dynole 34-2 25.0 (head prints mM)): 1.30% and 1.60% and 0.00% (2×) and 24.81% and 18.62% and 3.40% and 4.14% and 4.55% and 3.04%
- cell death of Ba/F3-IL7R cells (Ba/F3-IL7R cells; result in words): induced cell death in a dose-dependent manner
- Relative % viable cells [1]: 98.8%
- viability at 48 h, 0.04 mM ([2]; CD34, dose 0.04 mM, read-out: Relative % viable cells): 99.5%
- viability at 48 h, 0.2 mM ([2]; CD34, dose 0.2 mM, read-out: Relative % viable cells): 99.5%
- viability at 48 h, 0.04 mM ([2]; Relative % viable cells): 99.4%
- viability at 48 h, 0.2 mM ([2]; Relative % viable cells): 98.9%
- Time to leukemia [3]: 7 weeks and 8.71 weeks and 8.57 weeks and 7.57 weeks and 8.43 weeks
